# Molecular target: mouse TRPM3α2 (mTRPM3) ion channel (Mus musculus (Mouse), UniProt J9SQF3)
# Experiment: TRPM3 ion channel driven Ca2+ uptake, Fluo-4 AM assay, mTRPM3alpha2 overexpressing flip-in HEK293 cells stimulated with pregnenolone sulfate
# Assay type: cell-based
# Details: PS (50 μM) stimulated, cpd 001-199
# Outline: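 Flip-in HEK293 cells loaded with Fluo-4 AM were added to plates holding compound plus 50 μM pregnenolone sulfate in Ca2+-containing Krebs buffer. Fluorescence (ex 485/em 535 nm) read directly after cell addition; % inhibition relative to PS-stimulated vehicle and positive-control inhibitor.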
# Sequence of mouse TRPM3α2 (mTRPM3) ion channel (J9SQF3 other isoform, or with tags, fused parts or gaps): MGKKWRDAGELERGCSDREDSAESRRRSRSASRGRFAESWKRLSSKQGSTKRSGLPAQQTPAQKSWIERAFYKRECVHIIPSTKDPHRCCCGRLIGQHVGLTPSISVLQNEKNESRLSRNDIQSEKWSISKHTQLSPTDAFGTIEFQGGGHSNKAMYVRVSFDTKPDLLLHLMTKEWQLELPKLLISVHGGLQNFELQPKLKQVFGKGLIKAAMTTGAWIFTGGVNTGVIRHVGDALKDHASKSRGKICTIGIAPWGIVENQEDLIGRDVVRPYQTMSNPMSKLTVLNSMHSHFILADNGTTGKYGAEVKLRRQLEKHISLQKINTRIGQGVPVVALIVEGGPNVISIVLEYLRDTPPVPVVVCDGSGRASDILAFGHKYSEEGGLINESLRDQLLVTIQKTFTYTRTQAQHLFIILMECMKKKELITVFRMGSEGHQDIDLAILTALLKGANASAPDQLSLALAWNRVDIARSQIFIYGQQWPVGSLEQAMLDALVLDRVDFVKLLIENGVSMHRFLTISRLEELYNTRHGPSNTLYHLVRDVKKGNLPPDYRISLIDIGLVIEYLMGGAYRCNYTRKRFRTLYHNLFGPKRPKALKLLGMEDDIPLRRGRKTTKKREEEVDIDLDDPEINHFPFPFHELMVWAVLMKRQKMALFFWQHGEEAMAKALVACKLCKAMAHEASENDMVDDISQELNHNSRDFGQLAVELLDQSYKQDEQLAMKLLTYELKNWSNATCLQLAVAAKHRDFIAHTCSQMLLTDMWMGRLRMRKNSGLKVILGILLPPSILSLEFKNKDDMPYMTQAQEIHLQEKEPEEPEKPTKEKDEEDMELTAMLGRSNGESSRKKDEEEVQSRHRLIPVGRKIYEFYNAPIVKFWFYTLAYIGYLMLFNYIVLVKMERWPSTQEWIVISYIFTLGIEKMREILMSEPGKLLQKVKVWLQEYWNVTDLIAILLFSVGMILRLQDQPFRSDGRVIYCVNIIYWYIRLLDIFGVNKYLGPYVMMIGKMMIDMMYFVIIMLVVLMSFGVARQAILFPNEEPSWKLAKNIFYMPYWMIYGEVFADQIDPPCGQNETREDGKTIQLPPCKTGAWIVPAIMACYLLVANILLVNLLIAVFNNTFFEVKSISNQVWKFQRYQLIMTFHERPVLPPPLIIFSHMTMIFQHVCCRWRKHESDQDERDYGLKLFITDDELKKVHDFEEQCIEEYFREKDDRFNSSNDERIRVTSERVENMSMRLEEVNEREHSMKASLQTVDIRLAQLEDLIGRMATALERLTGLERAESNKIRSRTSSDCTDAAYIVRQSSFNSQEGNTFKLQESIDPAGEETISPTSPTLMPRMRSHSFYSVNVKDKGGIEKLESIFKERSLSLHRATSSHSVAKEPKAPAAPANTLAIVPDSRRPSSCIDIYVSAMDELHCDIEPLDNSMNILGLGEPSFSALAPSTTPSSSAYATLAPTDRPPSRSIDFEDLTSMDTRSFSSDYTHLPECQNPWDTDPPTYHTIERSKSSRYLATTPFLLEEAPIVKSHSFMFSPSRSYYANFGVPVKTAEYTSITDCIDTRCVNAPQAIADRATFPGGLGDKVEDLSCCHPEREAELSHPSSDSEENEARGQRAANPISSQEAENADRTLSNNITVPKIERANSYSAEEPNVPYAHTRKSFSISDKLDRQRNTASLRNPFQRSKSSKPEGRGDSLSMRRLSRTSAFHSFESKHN
row,Compound,IC50 [µM]
1,"Cc1oc2ccc(OCC3CCNC3)cc2c1C(=O)O (stereo not drawn) [compound 003, 2-methyl-5-(pyrrolidin-3-ylmethoxy)benzofuran-3-carboxylic acid]",> 20
2,"Cc1oc2ccc(OCc3ccncc3)cc2c1C(=O)O [compound 004, 2-methyl-5-(pyridin-4-ylmethoxy)benzofuran-3-carboxylic acid]",> 20
3,"Cc1oc2ccc(OCc3ccnn3C)cc2c1C(=O)O [compound 008, 2-methyl-5-((1-methyl-1H-pyrazol-5-yl)methoxy)benzofuran-3-carboxylic acid]",> 20
4,"Cc1noc(C)c1COc1ccc2oc(C)c(C(=O)O)c2c1 [compound 016, 5-((3,5-dimethylisoxazol-4-yl)methoxy)-2-methylbenzofuran-3-carboxylic acid]",> 20
5,"Cc1oc2ccc(OCc3nc4ccccc4s3)cc2c1C(=O)O [compound 017, 5-(benzo[d]thiazol-2-ylmethoxy)-2-methylbenzofuran-3-carboxylic acid]",> 20
6,"Cc1oc2ccc(OCC3CCN(C(=O)OC(C)(C)C)C3)cc2c1C(=O)O (stereo not drawn) [compound 019, 5-((1-(tert-butoxycarbonyl)pyrrolidin-3-yl)methoxy)-2-methylbenzofuran-3-carboxylic acid]",> 20
7,"Cc1oc2ccc(OCc3cccnc3)cc2c1C(=O)N[C@H]1CCNC1 [compound 022, (S)-2-methyl-5-(pyridin-3-ylmethoxy)-N-(pyrrolidin-3-yl)benzofuran-3-carboxamide]",< 1
8,"Cc1oc2ccc(OCc3nccs3)cc2c1C(=O)N[C@H]1CCNC1 [compound 025, (S)-2-methyl-N-(pyrrolidin-3-yl)-5-(thiazol-2-ylmethoxy)benzofuran-3-carboxamide]",< 1
9,"Cc1oc2ccc(OCc3ccccn3)cc2c1C(=O)NC1CCNC1=O (stereo not drawn) [compound 026, 2-methyl-N-(2-oxopyrrolidin-3-yl)-5-(pyridin-2-ylmethoxy)benzofuran-3-carboxamide]",< 1
10,"Cc1oc2ccc(OCc3cccnc3)cc2c1C(=O)NC1CCNC1=O (stereo not drawn) [compound 027, 2-methyl-N-(2-oxopyrrolidin-3-yl)-5-(pyridin-3-ylmethoxy)benzofuran-3-carboxamide]",< 1
11,"Cc1cncc(COc2ccc3oc(C)c(C(=O)N[C@H]4CCNC4)c3c2)c1 [compound 028, (S)-2-methyl-5-((5-methylpyridin-3-yl)methoxy)-N-(pyrrolidin-3-yl)benzofuran-3-carboxamide]",< 1
12,"Cc1cccc(COc2ccc3oc(C)c(C(=O)N[C@H]4CCNC4)c3c2)n1 [compound 029, (S)-2-methyl-5-((6-methylpyridin-2-yl)methoxy)-N-(pyrrolidin-3-yl)benzofuran-3-carboxamide]",< 1
13,"Cc1oc2ccc(OCc3ccsc3)cc2c1C(=O)NC1CCNC1=O (stereo not drawn) [compound 035, 2-methyl-N-(2-oxopyrrolidin-3-yl) -5-(thiophen-3-ylmethoxy)benzofuran-3-carboxamide]",< 1
14,"Cc1cncc(COc2ccc3oc(C)c(C(=O)NC4CCNC4=O)c3c2)c1 (stereo not drawn) [compound 038, 2-methyl-5-((5-methylpyridin-3-yl)methoxy)-N-(2-oxopyrrolidin-3-yl)benzofuran-3-carboxamide]",< 1
15,"COc1ccncc1COc1ccc2oc(C)c(C(=O)NC3CCOC3)c2c1 (stereo not drawn) [compound 040, 5-((4-methoxypyridin-3-yl)methoxy)-2-methyl-N-(tetrahydrofuran-3-yl)benzofuran-3-carboxamide]",> 20
16,"Cc1oc2ccc(OCc3cccs3)cc2c1C(=O)NC1CCN(C)CC1 [compound 041, 2-methyl-N-(1-methylpiperidin-4-yl)-5-(thiophen-2-ylmethoxy)benzofuran-3-carboxamide]",< 1
17,"Cc1csc(COc2ccc3oc(C)c(C(=O)NC4CCNC4=O)c3c2)n1 (stereo not drawn) [compound 043, 2-methyl-5-((4-methylthiazol-2-yl)methoxy)-N-(2-oxopyrrolidin-3-yl)benzofuran-3-carboxamide]",< 1
18,"Cc1oc2ccc(OCc3ccccn3)cc2c1C(=O)NC1CCNCC1(F)F (stereo not drawn) [compound 048, N-(3,3-difluoropiperidin-4-yl)-2-methyl-5-(pyridin-2-ylmethoxy)benzofuran-3-carboxamide]",< 1
19,"COc1ncccc1COc1ccc2oc(C)c(C(=O)NC3CCN(C)CC3)c2c1 [compound 051, 5-((2-methoxypyridin-3-yl)methoxy)-2-methyl-N-(1-methylpiperidin-4-yl)benzofuran-3-carboxamide]",< 1

# Continued, values first:
row,IC50 [µM],Compound
1,< 1,"Cc1ncsc1COc1ccc2oc(C)c(C(=O)NC3COCC3O)c2c1 (single isomer, unassigned; dia 1) [162-Dia 1-En1]"
2,< 1,"Cc1ncsc1COc1ccc2oc(C)c(C(=O)NC3COCC3O)c2c1 (single isomer, unassigned; dia 1) [162-Dia 1-En2]"
3,> 20,"Cc1oc2ccc(OCC3CCOCC3)cc2c1C(=O)O [compound 015, 2-methyl-5-((tetrahydro-2H-pyran-4-yl)methoxy)benzofuran-3-carboxylic acid]"
4,< 1,"Cc1oc2ccc(OCc3cncs3)cc2c1C(=O)N[C@H]1CCNC1 [compound 024, (S)-2-methyl-N-(pyrrolidin-3-yl)-5-(thiazol-5-ylmethoxy)benzofuran-3-carboxamide]"
5,> 20,"Cc1ccc(COc2ccc3oc(C)c(C(=O)NC4CCOC4)c3c2)cn1 (stereo not drawn) [compound 033, 2-methyl-5-((6-methylpyridin-3-yl)methoxy)-N-(tetrahydrofuran-3-yl)benzofuran-3-carboxamide]"
6,< 1,"Cc1ncsc1COc1ccc2oc(C)c(C(=O)NC3CCNC3=O)c2c1 (stereo not drawn) [compound 042, 2-methyl-5-((4-methylthiazol-5-yl)methoxy)-N-(2-oxopyrrolidin-3-yl)benzofuran-3-carboxamide]"
7,< 1,"Cc1oc2ccc(OCc3ccccn3)cc2c1C(=O)NC1(CO)CCOCC1 [compound 047, N-(4-(hydroxymethyl)tetrahydro-2H-pyran-4-yl)-2-methyl-5-(pyridin-2-ylmethoxy)benzofuran-3-carboxamide]"
8,< 1,"Cc1oc2ccc(OCc3nccs3)cc2c1C(=O)NC1(CO)CCOCC1 [compound 049, N-(4-(hydroxymethyl)tetrahydro-2H-pyran-4-yl)-2-methyl-5-(thiazol-2-ylmethoxy)benzofuran-3-carboxamide]"
9,< 1,"Cc1ncsc1COc1ccc2oc(C)c(C(=O)NC3(CO)CCOCC3)c2c1 [compound 054, N-(4-(hydroxymethyl)tetrahydro-2H-pyran-4-yl)-2-methyl-5-((4-methylthiazol-5-yl)methoxy)-benzofuran-3-carboxamide]"
10,< 1,"Cc1ncsc1COc1ccc2oc(C)c(C(=O)NC3CCNCC3(F)F)c2c1 (stereo not drawn) [compound 056, N-(3,3-difluoropiperidin-4-yl)-2-methyl-5-((4-methylthiazol-5-yl)methoxy)benzofuran-3-carboxamide]"

# Same assay, conditions: PS (50 μM) stimulated, cpds. 608-666
row,Compound,IC50 [µM]
1,"Cc1oc2ccc(OCc3nccn3C)cc2c1C(=O)NC1CNCC1(F)F (single isomer, unassigned) [cpd 638-En 1]",< 1
2,"Cc1oc2ccc(OCc3nccn3C)cc2c1C(=O)NC1CNCC1(F)F (single isomer, unassigned) [cpd 638-En 2]",1 to 20
3,"Cc1oc2ccc(OCc3ccnn3C)cc2c1C(=O)NC1CNCC1(F)F (single isomer, unassigned) [cpd 639-En 1]",< 1
4,"Cc1oc2ccc(OCc3nccn3C)cc2c1C(=O)NC1COCC1(F)F (single isomer, unassigned) [cpd 641-En 1]",1 to 20
5,"Cc1oc2ccc(OCc3ccnn3C)cc2c1C(=O)NC1COCC1(F)F (single isomer, unassigned) [cpd 642-En 1]",< 1
6,"Cc1oc2ccc(OCc3ccccn3)cc2c1C(=O)NC1COCC1(F)F (single isomer, unassigned) [cpd 647-En 1]",< 1
7,"Cc1oc2ccc(OCc3cccnc3O)cc2c1C(=O)NC1COCC1(F)F (single isomer, unassigned) [cpd 648-En 1]",< 1

# Results, then the compound that gave them:
row,IC50 [µM],Compound
1,< 1,"Cc1ncc(COc2ccc3oc(C)c(C(=O)NC4COCC4(F)F)c3c2)s1 (single isomer, unassigned) [cpd 643-En 1]"
2,< 1,"Cc1ncsc1COc1ccc2oc(C)c(C(=O)NC3COCC3(F)F)c2c1 (single isomer, unassigned) [cpd 646-En 1]"
3,< 1,"Cc1ncsc1COc1ccc2oc(C)c(C(=O)NC3CCCCNC3=O)c2c1 (single isomer, unassigned) [cpd 661-En 1]"

# Same assay, conditions: PS (50 μM) stimulated, cpds. 667-751
row,Compound,IC50 [µM]
1,"Cc1ncc(COc2ccc3oc(C)c(C(=O)NC(CS(C)(=O)=O)C(N)=O)c3c2)s1 (single isomer, unassigned) [cpd 726-En 1]",< 1
2,"Cc1oc2ccc(OCc3ccccn3)cc2c1C(=O)NC(C)(CO)C(N)=O (single isomer, unassigned) [cpd 738-En 1]",< 1
3,"Cc1oc2ccc(OCc3ccc(F)cn3)cc2c1C(=O)NC(C)(CO)C(N)=O (single isomer, unassigned) [cpd 739-En 1]",< 1

# The remaining lines, values ahead:
row,IC50 [µM],Compound
1,< 1,"Cc1ncc(COc2ccc3oc(C)c(C(=O)NC(C)(CO)C(N)=O)c3c2)o1 (single isomer, unassigned) [cpd 722-En 1]"
2,< 1,"Cc1ncc(COc2ccc3oc(C)c(C(=O)NC(C)(CO)C(N)=O)c3c2)o1 (single isomer, unassigned) [cpd 722-En 2]"
3,< 1,"Cc1ncsc1COc1ccc2oc(C)c(C(=O)NC3CCOCC3(F)F)c2c1 (single isomer, unassigned) [cpd 723-En 1]"
4,< 1,"Cc1ncc(COc2ccc3oc(C)c(C(=O)NC4CCOCC4(F)F)c3c2)s1 (single isomer, unassigned) [cpd 724-En 1]"
5,1 to 20,"Cc1ncc(COc2ccc3oc(C)c(C(=O)NC4CCOCC4(F)F)c3c2)s1 (single isomer, unassigned) [cpd 724-En 2]"
6,1 to 20,"Cc1ncc(COc2ccc3oc(C)c(C(=O)NC4CCS(=N)(=O)C4)c3c2)s1 (single isomer, unassigned) [cpd 727-En 1]"
